In patent publication US11739074B2, “Ras inhibitors” (Revolution Medicines, Inc., priority 2019, dated 2023):
Several values for one entry are separate records, joined by “and”; a condition that tells them apart may be missing. Equal entries are not always repeated. Where two headings read alike, the source gives them in different places.

What was measured:
[1] = system: NCI-H358 (K-Ras G12C); assay: CellTiter-Glo cell viability assay, H358; assay type: cell-based; settings: Homo sapiens, NCI-H358, 120 h
Summary of the method: (§1)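 Luminescent viability readout on day 5, plates first brought to room temperature for ~30 min; compounds added straight to plated RAS-mutant cells. Values expressed as percent of mean DMSO signal, curves fitted with a four-parameter logistic model.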

[2] = target: KRAS G12C (Homo sapiens, UniProt P01116+P62937, G12C); assay: Ras-Raf disruption/FRET/MOA assay, KRAS G12C; assay type: biochemical; settings: disruption of BRAF RBD binding, with Cyclophilin A; read-out: KRAS G12C FRET IC50
KRAS G12C, sequence (P01116 1-169 isoform P01116-2 G12C limits assumed): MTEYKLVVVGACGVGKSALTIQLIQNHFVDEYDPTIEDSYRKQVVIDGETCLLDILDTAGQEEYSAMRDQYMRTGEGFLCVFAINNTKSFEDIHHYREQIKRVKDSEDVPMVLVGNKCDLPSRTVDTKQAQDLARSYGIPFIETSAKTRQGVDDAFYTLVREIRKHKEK
KRAS G12C, sequence (P62937 whole entry, the tested form may be a part): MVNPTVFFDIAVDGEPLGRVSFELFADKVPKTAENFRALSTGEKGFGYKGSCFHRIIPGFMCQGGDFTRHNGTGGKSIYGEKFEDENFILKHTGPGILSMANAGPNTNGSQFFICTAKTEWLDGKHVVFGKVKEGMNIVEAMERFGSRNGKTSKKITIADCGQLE
Source text: (§2) Disruption of B-Raf Ras-Binding Domain (BRAF^RBD) Interaction with K-Ras by Compounds of the Invention (Also Called a FRET Assay or an MOA Assay)
(§3) Note—The following protocol describes a procedure for monitoring disruption of K-Ras G12C (GMP-PNP) binding to BRAF^RBD by a compound of the invention. This protocol may also be executed substituting other Ras proteins or nucleotides, such as K-Ras G12D and K-Ras G13D.
(§4) The purpose of this biochemical assay was to measure the ability of test compounds to facilitate ternary complex formation between a nucleotide-loaded K-Ras isoform and Cyclophilin A; the resulting ternary complex disrupts binding to a BRAF^RBD construct, inhibiting K-Ras signaling through a RAF effector.
(§5) In assay buffer containing 25 mM HEPES pH 7.3, 0.002% Tween20, 0.1% BSA, 100 mM NaCl and 5 mM MgCl2, tagless Cyclophilin A, His6-K-Ras-GMPPNP, and GST-BRAF^RBD were combined in a 384-well assay plate at final concentrations of 25 μM, 12.5 nM, and 50 nM, respectively. Compound was present in plate wells as a 10-point 3-fold dilution series starting at a final concentration of 30 μM. After incubation at 25° C. for 3 hours, a mixture of anti-His Eu-W1024 and anti-GST allophycocyanin was then added to assay sample wells at final concentrations of 10 nM and 50 nM, respectively, and the reaction incubated for an additional 1.5 hours. […] Compounds that facilitate disruption of a K-Ras:RAF complex were identified as those eliciting a decrease in the TR-FRET ratio relative to DMSO control wells.

[3] = target: KRAS G12V (Homo sapiens, UniProt P01116+P62937, G12V); assay: Ras-Raf disruption/FRET/MOA assay, KRAS G12V; assay type: biochemical
KRAS G12V, sequence (P01116 1-169 isoform P01116-2 G12V limits assumed): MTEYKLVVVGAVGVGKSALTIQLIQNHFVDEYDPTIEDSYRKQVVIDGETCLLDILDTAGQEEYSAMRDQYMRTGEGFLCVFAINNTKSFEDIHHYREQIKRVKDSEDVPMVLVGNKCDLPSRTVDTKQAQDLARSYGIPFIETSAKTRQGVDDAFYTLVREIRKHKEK
KRAS G12V, sequence (P62937 whole entry): as the sequence (P62937 whole entry, the tested form may be a part) above
Source text: as §2, §3, §4, §5

[4] = system: AsPC-1 (K-Ras G12D); assay: CellTiter-Glo cell viability assay, AsPC-1; assay type: cell-based; settings: Homo sapiens, ASPC1, 120 h, AsPC-1, K-Ras G12D, 5-day treatment; read-out: AsPC-1 Cell Viability IC50
Summary of the method: as §1

[5] = target: KRAS G12D (Homo sapiens, UniProt P01116+P62937, G12D); assay: Ras-Raf disruption/FRET/MOA assay, KRAS G12D; assay type: biochemical
KRAS G12D, sequence (P01116 1-169 isoform P01116-2 G12D limits assumed): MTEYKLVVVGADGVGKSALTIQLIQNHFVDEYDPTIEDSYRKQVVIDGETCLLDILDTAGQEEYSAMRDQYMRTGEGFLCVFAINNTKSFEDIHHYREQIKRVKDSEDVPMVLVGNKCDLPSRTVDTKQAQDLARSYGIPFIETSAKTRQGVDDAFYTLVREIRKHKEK
KRAS G12D, sequence (P62937 whole entry): as the sequence (P62937 whole entry, the tested form may be a part) above
Source text: as §2, §3, §4, §5

[6] = system: AsPC-1 (K-Ras G12D); assay: Potency assay: pERK in AsPC-1 cells; assay type: cell-based; settings: Homo sapiens
[7] = target: KRAS G13D (Homo sapiens, UniProt P01116+P62937, G13D); assay: Ras-Raf disruption/FRET/MOA assay, KRAS G13D; assay type: biochemical
KRAS G13D, sequence (P01116 1-169 isoform P01116-2 G13D limits assumed): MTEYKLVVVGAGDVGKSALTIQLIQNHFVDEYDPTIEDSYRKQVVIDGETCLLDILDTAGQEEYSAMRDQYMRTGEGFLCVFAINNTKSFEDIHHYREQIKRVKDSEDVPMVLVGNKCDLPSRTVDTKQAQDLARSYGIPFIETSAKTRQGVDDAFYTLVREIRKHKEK
KRAS G13D, sequence (P62937 whole entry): as the sequence (P62937 whole entry, the tested form may be a part) above
Source text: as §2, §3, §4, §5

[8] = target: T1, NRAS G12C (Homo sapiens, UniProt P01111+P62937, G12C); assay: Ras-Raf disruption/FRET/MOA assay, NRAS G12C; assay type: biochemical
T1 construct: His6
T1 sequence (P01111 whole entry G12C): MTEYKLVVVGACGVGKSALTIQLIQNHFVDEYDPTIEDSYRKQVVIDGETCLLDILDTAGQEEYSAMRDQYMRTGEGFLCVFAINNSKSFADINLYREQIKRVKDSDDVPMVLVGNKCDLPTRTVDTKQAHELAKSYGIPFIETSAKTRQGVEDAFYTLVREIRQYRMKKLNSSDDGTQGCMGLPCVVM
T1 sequence (P62937 whole entry): as the sequence (P62937 whole entry, the tested form may be a part) above
Source text: as §2, §3, §4, §5

[9] = target: KRAS G12S (Homo sapiens, UniProt P01116+P62937, G12S); assay: Ras-Raf disruption/FRET/MOA assay, KRAS G12S; assay type: biochemical
KRAS G12S, sequence (P01116 1-169 isoform P01116-2 G12S limits assumed): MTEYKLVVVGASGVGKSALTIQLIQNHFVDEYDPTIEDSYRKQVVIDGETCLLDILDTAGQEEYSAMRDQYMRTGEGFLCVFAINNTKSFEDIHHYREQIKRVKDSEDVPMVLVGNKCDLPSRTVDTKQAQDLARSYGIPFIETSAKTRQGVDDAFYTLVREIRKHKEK
KRAS G12S, sequence (P62937 whole entry): as the sequence (P62937 whole entry, the tested form may be a part) above
Source text: as §2, §3, §4, §5

[10] = target: KRAS G13C (Homo sapiens, UniProt P01116+P62937, G13C); assay: Ras-Raf disruption/FRET/MOA assay, KRAS G13C; assay type: biochemical
KRAS G13C, sequence (P01116 1-169 isoform P01116-2 G13C limits assumed): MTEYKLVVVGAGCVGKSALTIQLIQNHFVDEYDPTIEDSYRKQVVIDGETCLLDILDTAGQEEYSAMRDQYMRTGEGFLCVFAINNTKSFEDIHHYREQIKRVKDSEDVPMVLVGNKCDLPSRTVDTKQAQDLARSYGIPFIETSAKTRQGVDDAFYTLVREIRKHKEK
KRAS G13C, sequence (P62937 whole entry): as the sequence (P62937 whole entry, the tested form may be a part) above
Source text: as §2, §3, §4, §5

[11] = target: KRAS WT (Homo sapiens, UniProt P01116+P62937); assay: Ras-Raf disruption/FRET/MOA assay, KRAS WT; assay type: biochemical
KRAS WT, sequence (P01116 1-169 isoform P01116-2 limits assumed): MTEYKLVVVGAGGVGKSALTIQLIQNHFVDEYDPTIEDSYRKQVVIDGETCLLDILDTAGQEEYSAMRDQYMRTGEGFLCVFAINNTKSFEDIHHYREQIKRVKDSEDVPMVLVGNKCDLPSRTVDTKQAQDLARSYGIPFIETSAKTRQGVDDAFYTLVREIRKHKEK
KRAS WT, sequence (P62937 whole entry): as the sequence (P62937 whole entry, the tested form may be a part) above
Source text: as §2, §3, §4, §5

[12] = NCI-H358, K-Ras G12C, 5-day treatment, read-out: H358 Cell Viability IC50
[13] = disruption of BRAF RBD binding, with Cyclophilin A, read-out: KRAS G12V FRET IC50
[14] = disruption of BRAF RBD binding, with Cyclophilin A, read-out: KRAS G12D FRET IC50
[15] = ASPC1, AsPC-1 cells, K-Ras G12D, read-out: pERK EC50 (AsPC-1 KRAS G12D)
[16] = disruption of BRAF RBD binding, with Cyclophilin A, read-out: KRAS G13D FRET IC50
[17] = NRAS G12C, read-out: NRAS G12C FRET data IC50
[18] = disruption of BRAF RBD binding, with Cyclophilin A, read-out: KRAS G12S FRET IC50
[19] = disruption of BRAF RBD binding, with Cyclophilin A, read-out: KRAS G13C FRET IC50
[20] = disruption of BRAF RBD binding, with Cyclophilin A, read-out: KRAS WT FRET IC50

CCn1c(-c2cnccc2COC)c2c3cc(ccc31)-c1cc(O)cc(c1)C[C@H](NC(=O)[C@@H](CN(C)C(=O)[C@@H]1CN1)C(C)C)C(=O)N1CCC[C@H](N1)C(=O)OCC(C)(C)C2 [Compound 60]
IC50 [1, 12]: 1 to 10 µM | IC50 [2]: > 10 µM | IC50 [3, 13]: > 10 µM | IC50 [4]: 1 to 10 µM

CCn1c(-c2cccnc2COC)c2c3cc(ccc31)-c1cc(O)cc(c1)C[C@H](NC(=O)[C@H](C(C)C)N(C)C(=O)CCNC(=O)NCCCl)C(=O)N1CCC[C@H](N1)C(=O)OCC(C)(C)C2 [Example 25, (2S)-2-(3-(3-(2-chloroethyl)ureido)-N-methylpropanamido)-N-((6^3S,4S)-1^1-ethyl-2^5-hydroxy-1^2-(2-(methoxymethyl)pyridin-3-yl)-10,10-dimethyl-5,7-dioxo-6^1,6^2,6^3,6^4,6^5,6^6-hexahydro-1^1H-8-oxa-1(5,3)-indola-6(1,3)-pyridazina-2(1,3)-benzenacycloundecaphane-4-yl)-3-methylbutanamide]
IC50 ([1]; read-out: H358 Cell Viability IC50, NCI-H358, K-Ras G12C, 5-day treatment): > 10 µM | IC50 [3]: > 10 µM

CCCN=C=NCCC(=O)N(C)[C@H](C(=O)N[C@H]1Cc2cccc(c2)-c2ccc3c(c2)c(c(-c2cnccc2COC)n3CC)CC(C)(C)COC(=O)[C@@H]2CCCN(N2)C1=O)C(C)C [22 A and B]
IC50 [5, 14]: 1 to 10 µM | IC50 [1, 12]: 1 to 10 µM | IC50 [4]: 1 to 10 µM

CCn1c(-c2cnccc2COC)c2c3cc(ccc31)-c1cc(O)cc(c1)C[C@H](NC(=O)[C@@H](CCNC(=O)NCCCl)C(C)C)C(=O)N1CCC[C@H](N1)C(=O)OCC(C)(C)C2 [Compound 26]
IC50 ([1]; read-out: H358 Cell Viability IC50): 1 to 10 µM | IC50 [3, 13]: > 10 µM

CCn1c(-c2cccnc2[C@H](C)OC)c2c3cc(ccc31)-c1csc(n1)C[C@H](NC(=O)[C@H](C(C)C)N(C)C(=O)N1CC(N(C)C(=O)[C@H]3CN3)C1)C(=O)N1CCC[C@H](N1)C(=O)OCC(C)(C)C2 (atropisomer, axis not shown) [Compound 218]
EC50 [6, 15]: < 5 µM | IC50 [2]: 0.1 to 1 µM | IC50 [4]: 1 to 10 µM

CCn1c(-c2cnccc2COC)c2c3cc(ccc31)-c1cccc(c1)C[C@H](NC(=O)[C@H](C(C)C)N(C)C(=O)[C@H]1CC[C@H](N=C=Nc3ccc(OC)cc3)C1)C(=O)N1CCC[C@H](N1)C(=O)OCC(C)(C)C2 [71 A and B]
IC50 [7, 16]: > 10 µM | IC50 [8, 17]: 0.1 to 1 µM and > 10 µM | IC50 [5, 14]: > 10 µM | IC50 [9, 18]: > 10 µM | IC50 [10, 19]: > 10 µM | IC50 [11, 20]: > 10 µM | IC50 [3, 13]: > 10 µM

CCn1c(-c2cnccc2COC)c2c3cc(ccc31)-c1cc(O)cc(c1)C[C@H](NC(=O)[C@H](C(C)C)N(C)C(=O)[C@H]1CCN(C(=O)N3C[C@H]3C(=O)OC)C1)C(=O)N1CCC[C@H](N1)C(=O)OCC(C)(C)C2 [Compound 111]
IC50 [7, 16]: 0.1 to 1 µM | IC50 [8, 17]: 0.1 to 1 µM | IC50 [5, 14]: 1 to 10 µM | IC50 [9, 18]: 0.1 to 1 µM | IC50 [10, 19]: 0.1 to 1 µM | IC50 [2]: 0.1 to 1 µM | IC50 [11, 20]: 0.1 to 1 µM | IC50 [3, 13]: 0.1 to 1 µM | IC50 [4]: > 10 µM

CCn1c(-c2cnccc2COC)c2c3cc(ccc31)-c1cc(O)cc(c1)C[C@H](NC(=O)[C@@H](CN(C)C(=O)[C@H]1CN1)C(C)C)C(=O)N1CCC[C@H](N1)C(=O)OCC(C)(C)C2 [Compound 99]
IC50 [2]: > 10 µM | IC50 [3, 13]: > 10 µM | IC50 [4]: > 10 µM

CCn1c(-c2cccnc2[C@H](C)OC)c2c3cc(ccc31)-c1cc(O)cc(c1)C[C@H](NC(=O)[C@H](C(C)C)N(C)C(=O)C1CC3(C1)CN(C(=O)[C@H]1CN1)C3)C(=O)N1CCC[C@H](N1)C(=O)OCC(C)(C)C2 [Compound 181]
IC50 [5, 14]: 0.1 to 1 µM | IC50 [4]: > 10 µM

CCn1c(-c2cnccc2COC)c2c3cc(ccc31)-c1cc(O)cc(c1)C[C@H](NC(=O)[C@H](C(C)C)N(C)C(=O)CN(C)C(=O)C1CN1)C(=O)N1CCC[C@H](N1)C(=O)OCC(C)(C)C2 (some centres unmarked) [Compound 33]
IC50 [7]: 0.1 to 1 µM | IC50 ([8]; NRAS G12C FRET data IC50, NRAS G12C): 0.01 to 0.1 µM | EC50 ([6]; ASPC1, read-out: pERK EC50 (AsPC-1 KRAS G12D)): < 5 µM | IC50 [5]: 0.1 to 1 µM | IC50 [9]: 0.01 to 0.1 µM | IC50 [10]: 0.1 to 1 µM | IC50 [11]: 0.1 to 1 µM | IC50 [3]: 0.1 to 1 µM

CCn1c(-c2cnccc2COC)c2c3cc(ccc31)-c1cccc(c1)C[C@H](NC(=O)[C@H](C(C)C)N(C)C(=O)CCN=C=Nc1ccccc1COC)C(=O)N1CCC[C@H](N1)C(=O)OCC(C)(C)C2 [Compound 63]
IC50 [1, 12]: 0.1 to 1 µM | IC50 [3, 13]: > 10 µM | IC50 [4]: 1 to 10 µM

CCn1c(-c2cnccc2COC)c2c3cc(ccc31)-c1cccc(c1)C[C@H](NC(=O)[C@H](C(C)C)N(C)C(=O)CCCN=C=NCCCOC)C(=O)N1CCC[C@H](N1)C(=O)OCC(C)(C)C2 [69 A and B]
IC50 [1, 12]: 1 to 10 µM | IC50 [3, 13]: > 10 µM | IC50 [4]: 1 to 10 µM

CCn1c(-c2cnccc2COC)c2c3cc(ccc31)-c1cccc(c1)C[C@H](NC(=O)[C@H](C(C)C)N1CC[C@H](CN=C=Nc3ccc(OC)cc3)C1)C(=O)N1CCC[C@H](N1)C(=O)OCC(C)(C)C2 [Compound 81]
IC50 [3, 13]: > 10 µM | IC50 [4]: 1 to 10 µM

CCn1c(-c2cnccc2COC)c2c3cc(ccc31)-c1cccc(c1)C[C@H](NC(=O)[C@H](C(C)C)N(C)C(=O)CCN=C=NCCCN1CCOCC1)C(=O)N1CCC[C@H](N1)C(=O)OCC(C)(C)C2 [17 A and B]
EC50 [6, 15]: < 5 µM | IC50 [1, 12]: 1 to 10 µM | IC50 [2]: 0.1 to 1 µM | IC50 [4]: 1 to 10 µM

CCn1c(-c2cnccc2COC)c2c3cc(ccc31)-c1cccc(c1)C[C@H](NC(=O)[C@H](C(C)C)N(C)C(=O)[C@@H]1CC[C@@H](N=C=Nc3ccc(OC)cc3)C1)C(=O)N1CCC[C@H](N1)C(=O)OCC(C)(C)C2 [70 A and B]
IC50 [7, 16]: > 10 µM | IC50 [8, 17]: 0.1 to 1 µM and > 10 µM | IC50 [9, 18]: > 10 µM | IC50 [11, 20]: > 10 µM | IC50 [3, 13]: > 10 µM

CCn1c(-c2cccnc2COC)c2c3cc(ccc31)-c1cc(O)cc(c1)C[C@H](NC(=O)[C@H](C(C)C)N(C)C(=O)CCNC1=NCCO1)C(=O)N1CCC[C@H](N1)C(=O)OCC(C)(C)C2 [Compound 27]
IC50 [1, 12]: > 10 µM | IC50 [3, 13]: > 10 µM

CCn1c(-c2cccnc2COC)c2c3cc(ccc31)-c1cc(O)cc(c1)C[C@H](NC(=O)[C@H](C(C)C)N(C)C(=O)CNC1=NCCO1)C(=O)N1CCC[C@H](N1)C(=O)OCC(C)(C)C2 [Compound 28]
IC50 [1, 12]: > 10 µM | IC50 [3, 13]: > 10 µM | IC50 [4]: > 10 µM
